Assay results published in patent publication US10160747B2, “Compounds and methods for kinase modulation, and indications therefor” (Plexxikon Inc., priority 2016, dated 2018).

What was measured:
BA/F3-FLT3-ITD + D835Y = target: T1, BA/F3-FLT3-ITD + D835Y (Homo sapiens, UniProt P36888, D835Y, cells depend on it, form not given); assay: Engineered BA/F3 cell growth assay, FLT3 ITD/D835Y; format: cell-based, murine; settings: 3 d growth
T1 sequence (P36888 with tags, fused parts or gaps INS600HVDFREYEYD/D835Y): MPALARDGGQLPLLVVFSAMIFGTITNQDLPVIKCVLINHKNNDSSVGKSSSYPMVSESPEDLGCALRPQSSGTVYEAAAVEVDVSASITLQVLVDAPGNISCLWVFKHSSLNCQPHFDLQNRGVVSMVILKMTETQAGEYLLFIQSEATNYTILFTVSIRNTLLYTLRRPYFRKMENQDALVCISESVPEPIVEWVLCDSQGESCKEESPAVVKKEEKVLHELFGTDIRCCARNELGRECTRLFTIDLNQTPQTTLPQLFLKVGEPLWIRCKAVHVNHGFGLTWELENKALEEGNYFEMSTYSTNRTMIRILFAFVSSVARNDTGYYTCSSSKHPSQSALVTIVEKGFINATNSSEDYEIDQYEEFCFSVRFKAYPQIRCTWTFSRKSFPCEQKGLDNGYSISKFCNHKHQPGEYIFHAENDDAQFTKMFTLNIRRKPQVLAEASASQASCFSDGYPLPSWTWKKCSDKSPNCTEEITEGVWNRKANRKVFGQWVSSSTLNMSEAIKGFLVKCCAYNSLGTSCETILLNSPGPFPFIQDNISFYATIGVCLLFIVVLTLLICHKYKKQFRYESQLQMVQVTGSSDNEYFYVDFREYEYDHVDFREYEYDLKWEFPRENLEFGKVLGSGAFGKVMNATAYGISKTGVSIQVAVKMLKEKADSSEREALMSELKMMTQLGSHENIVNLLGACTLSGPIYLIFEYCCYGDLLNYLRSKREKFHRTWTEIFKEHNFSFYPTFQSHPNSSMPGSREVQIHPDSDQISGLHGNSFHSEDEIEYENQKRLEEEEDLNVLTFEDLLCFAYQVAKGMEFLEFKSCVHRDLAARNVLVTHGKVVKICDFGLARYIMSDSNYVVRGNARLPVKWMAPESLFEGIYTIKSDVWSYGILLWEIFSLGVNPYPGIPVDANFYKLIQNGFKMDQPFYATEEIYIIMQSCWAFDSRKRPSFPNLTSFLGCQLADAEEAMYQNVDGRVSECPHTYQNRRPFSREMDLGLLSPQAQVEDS
Text: (§1) The FLT3 inhibitors may be assessed using the MOLM-14, Acute Myeloid Leukemia cell line that endogenously expresses FLT3 ITD or derivatives of the human FLT3 AML cell line which acquired the D835Y (activation loop) of F691L (gatekeeper) mutation after selection in escalating doses of the FLT3 Inhibitor AC220. FLT3 inhibitors may also be assessed using cells that are engineered to express mutant FLT3. For engineered cells, murine Ba/F3 cells were transfected with full-length FLT3 ITD/D835Y mutations. The parental BA/F3 cells are dependent upon Interleukin-3 (IL-3) for survival, and introduction of the FLT3 constructs rendered these cells dependent upon FLT3 kinase activity when cultured in the absences of IL-3. Engineered BA/F3 cell growth assays can be performed in either the […] of IL-3, to assess the compound inhibition of FLT3 or to detect the presence of off-target activity, respectively. Inhibitors of FLT3 kinase activity reduce or eliminate the FLT3 oncogenic signaling, resulting in reduced cell proliferation. This inhibition is measured as a function of compound concentration to assess IC50 values.
(§2) Cell lines used in proliferation assays are as follows in Table 2:
(§3) Cells were seeded at 1×10^4 cells per well of a 96 well cell culture plate in 50 μl of cell culture medium. Compounds were dissolved in DMSO, typically at a concentration of 0.5 mM and were serially diluted 1:3 for a total of eight points and added to the cells to final concentrations of […], 0.0041, 0.0014 and 0.00046 μM in 100 μl cell culture medium (final concentration 0.2% DMSO). […] The cells were incubated at 37° C., 5% CO2 for three days. CellTiter-Glo Buffer (Promega Cell Viability Assay catalog #G7573) and substrate were equilibrated to room temperature, and enzyme/substrate Recombinant Firefly Luciferase/Beetle Luciferin was reconstituted. The cell plates were equilibrated to room temperature for 30 minutes, then lysed by addition of an equivalent volume of the Celltiter-Glo Reagent. The plate was mixed for 10 minutes on a plate shaker to lyse the cells. The plates were read on a Tecan M1000 using Luminescence protocol modified to read 0.1 s per well. The luminescence reading assesses the ATP content, which correlates directly with cell number such that the reading as a function of compound concentration was used to determine the IC50 value.
The BaF3 assays as developed used to generate the data in Tables 7 and 8 are identical and differ only in minor details in regards to vector design, not biological function. Both introduce the FLT3 gene with MV4-11 based ITD duplications and resistance mutations from an exogenous promoter (MSCV and CMV respectively) in the exact same cell line.
As a result of the expressed FLT3 protein, the IL3 factor dependent BaF3 cell clones become IL3-factor independent.
The compounds in Tables 7 and 8 were tested in an identical fashion by incubating such clones in with increasing concentrations. Inhibition of the FLT3 activity by an inhibitor results in factor dependency, which in the absence of IL3 results in cell death in the three day growth assays.

[1] = system: MOLM-14 F691L (endogenous FLT3 ITD and transfected FLT3 F691L); assay: MOLM-14 F691L cell proliferation assay (CellTiter-Glo); format: cell-based; settings: Homo sapiens, MOLM-14, 72 h; 3 d growth, GMean
Text: as §1, §2, §3

[2] = system: MOLM-14 D835Y (endogenous FLT3 ITD and transfected FLT3 D835Y); assay: MOLM-14 D835Y cell proliferation assay (CellTiter-Glo); format: cell-based; settings: Homo sapiens, MOLM-14, 72 h; 3 d growth, GMean
Text: as §1, §2, §3

| GI50 (BA/F3-FLT3-ITD + D835Y) | IC50 [1] | IC50 [2] | SMILES |
| --- | --- | --- | --- |
| 0.0001 to 10 µM | 0.0001 to 10 µM | 0.0001 to 10 µM | Cn1cc(Nc2ncc(-c3ccc(CC(=O)Nc4cnc5[nH]ccc5c4)cc3)cn2)cn1 [Compound P-0119, 2-[4-[2-[(1-methylpyrazol-4-yl)amino]pyrimidin-5-yl]phenyl]-N-(1H-pyrrolo[2,3-b]pyridin-5-yl)acetamide] |
| 0.0001 to 10 µM | 0.0001 to 10 µM | 0.0001 to 10 µM | Cn1cc(Nc2ncc(-c3ccc(CC(=O)NCc4cccc(C(F)(F)F)c4)cc3)cn2)cn1 [Compound P-0128, 2-[4-[2-[(1-methylpyrazol-4-yl)amino]pyrimidin-5-yl]phenyl]-N-[[3-(trifluoromethyl)phenyl]methyl]acetamide] |
| 0.0001 to 10 µM | 0.0001 to 10 µM | 0.0001 to 10 µM | COCCn1cc(Nc2ncc(-c3ccc(CC(=O)Nc4cnc(C)c(C(F)(F)F)c4)c(F)c3)cn2)cn1 [Compound P-0264, 2-[2-fluoro-4-[2-[[1-(2-methoxyethyl)pyrazol-4-yl]amino]pyrimidin-5-yl]phenyl]-N-[6-methyl-5-(trifluoromethyl)-3-pyridyl]acetamide] |
| 0.0001 to 10 µM | 0.0001 to 10 µM | 0.0001 to 10 µM | O=C(Cc1ccc(-c2cnc(Nc3cnn(C(F)F)c3)nc2)cc1)Nc1cncc(C2CC2)c1 [Compound P-0224, N-(5-cyclopropyl-3-pyridyl)-2-[4-[2-[[1-(difluoromethyl)pyrazol-4-yl]amino]pyrimidin-5-yl]phenyl]acetamide] |
| 0.0001 to 10 µM | 0.0001 to 10 µM | 0.0001 to 10 µM | COc1ncc(NC(=O)Cc2ccc(-c3cnc4[nH]c(-c5ccc(N6CCOCC6)nc5)cc4c3)c(F)c2)cc1C(F)(F)F [Compound P-0193, 2-[3-fluoro-4-[2-(6-morpholino-3-pyridyl)-1H-pyrrolo[2,3-b]pyridin-5-yl]phenyl]-N-[6-methoxy-5-(trifluoromethyl)-3-pyridyl]acetamide] |
| 0.0001 to 10 µM | 0.0001 to 10 µM | 0.0001 to 10 µM | Cn1cc(Nc2ncc(-c3ccc(CC(=O)Nc4cnc(Cl)c(Br)c4)cc3)cn2)cn1 [Compound P-0117, N-(5-bromo-6-chloro-3-pyridyl)-2-[4-[2-[(1-methylpyrazol-4-yl)amino]pyrimidin-5-yl]phenyl]acetamide] |
| 0.0001 to 10 µM | 0.0001 to 10 µM | 0.0001 to 10 µM | COc1ncc(NC(=O)Cc2ccc(-c3cnc4[nH]c(-c5ccnc(C#N)c5)cc4c3)nc2)cc1C(F)(F)F [Compound P-0006, 2-[6-[2-(2-cyano-4-pyridyl)-1H-pyrrolo[2,3-b]pyridin-5-yl]-3-pyridyl]-N-[6-methoxy-5-(trifluoromethyl)-3-pyridyl]acetamide] |
| 0.0001 to 10 µM | 0.0001 to 10 µM | 0.0001 to 10 µM | Cn1cc(Nc2ncc(-c3ccc(CC(=O)NCc4c(Cl)cccc4Cl)cc3)cn2)cn1 [Compound P-0123, N-[(2,6-dichlorophenyl)methyl]-2-[4-[2-[(1-methylpyrazol-4-yl)amino]pyrimidin-5-yl]phenyl]acetamide] |
| 0.0001 to 10 µM | 0.0001 to 10 µM | – | N#Cc1ccc(-c2cc3cc(-c4ccc(CC(=O)Nc5ccnc(C(F)(F)F)c5)nc4)cnc3[nH]2)cn1 [Compound P-0184, 2-[5-[2-(6-cyano-3-pyridyl)-1H-pyrrolo[2,3-b]pyridin-5-yl]-2-pyridyl]-N-[2-(trifluoromethyl)-4-pyridyl]acetamide] |
| 0.0001 to 10 µM | 0.0001 to 10 µM | 0.0001 to 10 µM | COc1cc(-c2cc3cc(-c4ccc(CC(=O)Nc5cnc(OC)c(C(F)(F)F)c5)c(F)c4)cnc3[nH]2)ccn1 [Compound P-0009, 2-[2-fluoro-4-[2-(2-methoxy-4-pyridyl)-1H-pyrrolo[2,3-b]pyridin-5-yl]phenyl]-N-[6-methoxy-5-(trifluoromethyl)-3-pyridyl]acetamide] |
| 0.0001 to 10 µM | 0.0001 to 10 µM | 0.0001 to 10 µM | Cc1noc2ncc(NC(=O)Cc3ccc(-c4cnc(Nc5cnn(C)c5)nc4)cc3)cc12 [Compound P-0130, N-(3-methylisoxazolo[5,4-b]pyridin-5-yl)-2-[4-[2-[(1-methylpyrazol-4-yl)amino]pyrimidin-5-yl]phenyl]acetamide] |
| 0.0001 to 10 µM | 0.0001 to 10 µM | 0.0001 to 10 µM | O=C(Cc1ccc(-c2cnc3[nH]c(Cl)cc3c2)cc1F)Nc1cc(C(F)(F)F)ccn1 [Compound P-0040, 2-(4-(2-chloro-1H-pyrrolo[2,3-b]pyridin-5-yl)-2-fluorophenyl)-N-(4-(trifluoromethyl)pyridin-2-yl)acetamide] |
| 0.0001 to 10 µM | – | 0.0001 to 10 µM | COc1cc(-c2cc3cc(-c4ccc(CC(=O)Nc5ccnc(C(F)(F)F)c5)cn4)cnc3[nH]2)ccn1 [Compound P-0186, 2-[6-[2-(2-methoxy-4-pyridyl)-1H-pyrrolo[2,3-b]pyridin-5-yl]-3-pyridyl]-N-[2-(trifluoromethyl)-4-pyridyl]acetamide] |
| 0.0001 to 10 µM | – | 0.0001 to 10 µM | O=C(Cc1ccc(-c2cnc3[nH]c(-c4ccnc(N5CCOCC5)c4)cc3c2)nc1)Nc1ccnc(C(F)(F)F)c1 [Compound P-0069, 2-[6-[2-(2-morpholino-4-pyridyl)-1H-pyrrolo[2,3-b]pyridin-5-yl]-3-pyridyl]-N-[2-(trifluoromethyl)-4-pyridyl]acetamide] |
| 0.0001 to 10 µM | – | – | N#Cc1cc(-c2cc3cc(-c4ccc(CC(=O)Nc5ccnc(C(F)(F)F)c5)cn4)cnc3[nH]2)ccn1 [Compound P-0185, 2-[6-[2-(2-cyano-4-pyridyl)-1H-pyrrolo[2,3-b]pyridin-5-yl]-3-pyridyl]-N-[2-(trifluoromethyl)-4-pyridyl]acetamide] |
| 0.0001 to 10 µM | – | – | O=C(Cc1ccc(-c2cnc3[nH]c(Cl)cc3c2)cc1F)Nc1ccc(C(F)(F)F)cn1 [Compound P-0041, 2-[4-(2-chloro-1H-pyrrolo[2,3-b]pyridin-5-yl)-2-fluoro-phenyl]-N-[5-(trifluoromethyl)-2-pyridyl]acetamide] |
| 0.0001 to 10 µM | – | 0.0001 to 10 µM | N#Cc1cc(-c2cc3cc(-c4cc(F)c(CC(=O)Nc5cc(C(F)(F)F)ccn5)cc4F)cnc3[nH]2)ccn1 [Compound P-0188, 2-[4-[2-(2-cyano-4-pyridyl)-1H-pyrrolo[2,3-b]pyridin-5-yl]-2,5-difluoro-phenyl]-N-[4-(trifluoromethyl)-2-pyridyl]acetamide] |
| 0.0001 to 10 µM | 0.0001 to 10 µM | – | Cn1cc(Nc2ncc(-c3ccc(CC(=O)NCc4ccc(Cl)cn4)cc3)cn2)cn1 [Compound P-0114, N-[(5-chloro-2-pyridyl)methyl]-2-[4-[2-[(1-methylpyrazol-4-yl)amino]pyrimidin-5-yl]phenyl]acetamide] |
